Columns and labels:
[1] = test system: B09 (DNA, aptamer) GCTAGACGATATTCGTCCATCTCCCGTGCATGCGAGACCGTGAGTTGGACTGACCCGCTTCCGCTGTCAGACTGAATATGTC; experiment: plate saturation binding, absorbance at 450 nm, nonlinear regression; details: varied aptamer, fixed rongalite; immobilised compound (implied by plate assay); buffer not stated
[2] = test system: A09 (DNA, aptamer) GACATATTCAGTCTGACAGCGGAAGCGGGTCAGTCCAACTCACGGTCTCGCATGCACGGGAGATGGACGAATATCGTCTAGC; experiment: as above; details: varied aptamer, fixed rongalite; immobilised compound (implied by plate assay); buffer not stated

- Kd [1]: 0.03981 ± 0.01273 µM
- Kd [2]: 0.06112 ± 0.01636 µM
SMILES: O=S(O)CO
